Test results: ChEMBL document CHEMBL5143623, “Discovery of novel spiro compound as RAF kinase inhibitor with in vitro potency against KRAS mutant cancer” (Bioorg Med Chem Lett, 2022)
Active and inactive are the calls of the source. The rule behind the calls is not given here.

Assays:
[1] = target: RAF proto-oncogene serine/threonine-protein kinase (Homo sapiens, UniProt P04049); assay: Inhibition of human recombinant cRAF measured after 1 hr by TR-FRET assay
NCI-H358 [2] = assay: Growth inhibition of human H358 cells expressing KRAS […] mutant measured after 3 days by Cell-titer Glo assay; assay type: functional; details: NCI-H358, 72 h, time 3 day
NCI-H358 [3] = assay: Effect on Erk signalling pathway in human H358 cells assessed as increase in Erk phosphorylation by HTRF assay; assay type: functional, cell-based

Chain of RAF proto-oncogene serine/threonine-protein kinase (P04049 whole entry): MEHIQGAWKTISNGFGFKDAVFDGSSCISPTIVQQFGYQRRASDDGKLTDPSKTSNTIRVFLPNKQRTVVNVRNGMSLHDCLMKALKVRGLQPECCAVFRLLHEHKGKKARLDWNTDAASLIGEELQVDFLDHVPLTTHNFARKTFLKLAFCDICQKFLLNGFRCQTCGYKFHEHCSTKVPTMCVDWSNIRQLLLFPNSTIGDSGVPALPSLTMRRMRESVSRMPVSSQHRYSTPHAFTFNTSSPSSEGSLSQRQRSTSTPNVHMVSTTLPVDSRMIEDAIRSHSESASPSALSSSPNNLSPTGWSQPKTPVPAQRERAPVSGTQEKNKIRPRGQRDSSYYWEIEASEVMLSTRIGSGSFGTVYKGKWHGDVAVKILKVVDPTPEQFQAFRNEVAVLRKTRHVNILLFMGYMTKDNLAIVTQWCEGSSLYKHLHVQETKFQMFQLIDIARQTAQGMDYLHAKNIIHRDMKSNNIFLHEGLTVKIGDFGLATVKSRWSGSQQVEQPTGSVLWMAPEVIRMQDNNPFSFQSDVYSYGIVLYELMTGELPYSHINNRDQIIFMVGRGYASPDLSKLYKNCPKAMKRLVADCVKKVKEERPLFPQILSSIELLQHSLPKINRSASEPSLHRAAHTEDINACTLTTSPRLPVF

Row | IC50 [1] [nM] | GI50 (NCI-H358 [2]) [nM] | Structure (SMILES) | Activity (NCI-H358 [3])
1 | 37 | 9700 | Cc1ccc(NC(=O)c2ccnc(C(F)(F)F)c2)cc1-c1ccc2c(c1)C(=O)CC1(CCOCC1)O2 | –
2 | 19 | 15000 | Cc1ccc(NC(=O)c2ccnc(C(F)(F)F)c2)cc1-c1ccc2c(c1)OC1(CCNCC1)NC2=O | –
3 | 19 | 9100 | Cc1ccc(NC(=O)c2ccnc(C(F)(F)F)c2)cc1-c1ccc2c(c1)OC1(CCOCC1)CC2O (stereo not given) | –
4 | – | 3000 | Cc1ccc(NC(=O)c2ccnc(C(F)(F)F)c2)cc1-c1cc(OCCO)nc(N2CCOCC2)c1 [NAPORAFENIB] | Active
5 | 36 | 13000 | Cc1ccc(NC(=O)c2ccnc(C(F)(F)F)c2)cc1-c1ccc2c(c1)OC1(CCOCC1)CC2 | –
6 | 28 | 8700 | Cc1ccc(NC(=O)c2ccnc(C(F)(F)F)c2)cc1-c1cnc2c(c1)OC1(CCOCC1)NC2=O | –
7 | 29 | 14000 | Cc1ccc(NC(=O)c2ccnc(C(F)(F)F)c2)cc1-c1ccc2c(c1)OC1(CCOCC1)CC2NCCO (stereo not given) | –
8 | 4.3 | 8300 | Cc1ccc(NC(=O)c2ccnc(C(F)(F)F)c2)cc1-c1ccc2c(c1)OC1(CCOC1)NC2=O (stereo not given) | –
9 | 4.8 | 15000 | Cc1ccc(NC(=O)c2ccnc(C(F)(F)F)c2)cc1-c1ccc2c(c1)NC1(CCOCC1)NC2=O | –
10 | 7 | 5600 | Cc1ccc(NC(=O)c2ccnc(C(F)(F)F)c2)cc1-c1ccc2c(c1)OC1(CCSCC1)NC2=O | –
